The results in this text go back to patent US20250339442A1, “METHODS OF TREATMENT USING A DUAL SPECIFICITY TYROSINE-PHOSPHORYLATION-REGULATED KINASE 1A (DYRK1A) INHIBITOR” (Fresh Tracks Therapeutics, Inc., priority 2022, published 2025).

For assay [1], the system named is IMQ-induced psoriasis-like inflammation. Briefly: Imiquimod (IMQ)-induced psoriasis-like dermal inflammation. The settings on record: BALB/c mice. The class given is in vivo. The text has this:
The anti-inflammatory activity of Compound A in the imiquimod (IMQ)-induced psoriasis-like dermal inflammation in BALB/c mice was investigated.

The next assay relates to CD4+ T cells. The experiment in a line: Differentiation of CD4+ T cells (Th1, Th17, Treg). The assay is classed as cell-based. The source says: Th1 and Th17 cells are main players contributing to organ specific autoimmune disease and inflammation.
Assay [2] has as its system house dust-induced atopic dermatitis. Briefly: House dust-induced atopic dermatitis model. The class given is in vivo, mice. The source says:
The potential anti-inflammatory and anti-pruritic effects of Compound A were investigated in a house dust-induced atopic dermatitis model in mice.

For assay [3], the system named is Collagen-Induced Arthritis. Briefly: Collagen-Induced Arthritis Model. The settings on record: 60 mg/kg once daily, vs vehicle only treated animals. The class given is in vivo, DBA/1 mice. The procedure: Furthermore, the efficacy of Compound A in the Collagen-Induced Arthritis Model in DBA/1 mice was tested. Immunization with Type II Chicken Collagen led to the development of arthritis. In comparison with vehicle only treated animals, mice treated once daily with 60 mg/kg Compound A led to a reduction in arthritis index scores, paw measurements, and histopathology scores.

For assay [4], the system named is PBMCs from subjects with ulcerative colitis. The experiment in a line: Pro-inflammatory cytokine expression in PBMCs from subjects with ulcerative colitis (cytometric bead array). The class given is cell-based, human. The text has this: The anti-inflammatory effect of Compound A in PBMCs from subjects with ulcerative colitis was studied. The expression of pro-inflammatory cytokines IL-1β, IL 6, IL-8, IL-10 and TNF-α was investigated using a cytometric bead array (CBA).

Where [5] appears, read: oral 30 mg/kg/day QD or BID x 21 days, in comparison with controls.

Each structure is given as a SMILES string. Entries after “also recorded” stand apart in the source; their conditions may differ.

As to `CCNc1cc(Nc2ccc(C(=O)N3CCC(N4CCOCC4)CC3)cc2OC)nc2[nH]cc(C(F)(F)F)c12` [Compound A, (4-((4-(ethylamino)-3-(trifluoromethyl)-1H-pyrrolo[2,3-b]pyridin-6-yl)amino)-3-methoxyphenyl)(4-morpholinopiperidin-1-yl)methanone], the “IMQ-induced psoriasis-like inflammation (ear swelling)” value in assay [1] (45 mg/kg PO BID x 9 days) is “significantly (p<0.05) protective effects”. Moreover, in assay [1] (60 mg/kg PO BID x 9 days), the “IMQ-induced psoriasis-like inflammation (ear swelling)” value is given as “significantly (p<0.05) protective effects”. Further, in the assay on CD4+ T cells, the “development of Treg cells” value is on record as “enhanced the development of Treg cells; also recorded: enhancing the development of Treg cells”; the “differentiation of Th1 and Th17 cells” value is “inhibiting the differentiation of Th1 and Th17 cells; also recorded: inhibition of Th1 and Th7 cells”. Also, the “T cell subset levels in the skin (immunohistochemical staining)” value in assay [2] (in comparison with vehicle controls and the positive control abrocitinib) is reported as “decreased all subset levels in the skin”. Moreover, in assay [2] (setting [5]), the “IL-4 level in the skin” value is recorded as “markedly reduced”, the “IL-13 level in the skin” value is “markedly reduced” and the “IL-17 level in the skin” value is listed as “markedly reduced”. In assay [3], the arthritis index scores entry was “reduction”, the histopathology scores entry is “reduction” and the paw measurements entry is given as “reduction”. Further, the “expression of pro-inflammatory cytokines IL-1β, IL 6, IL-8, IL-10 and TNF-α” value in assay [4] is recorded as “reducing pro inflammatory cytokines in PBMCs; also recorded: statistically significant reduction”.
